Consider 1 substance from patent US20230313206A1, “System for inducible expression of an adapter in immune cells” (Miltenyi Biotec B.V. & Co. KG, priority 2020, published 2023).

Holding throughout (assay type): cell-based
Test [1] concerns PD-1 expression on T cells. Kind of test: PD-1 expression (activation) of anti-His adapter CAR T cells in co-culture with Raji cells and inducible anti-CD19 Fab T cells. The conditions noted are these: adapter CAR T cells (E:T 2:1) and 1E4 inducible T cells, day 2. As for the experimental part:
To set up the co-culture, 1E4 GFP^+ Raji cells were seeded in 50 μL TexMACS medium (Miltenyi Biotec) in a 96-well round-bottom plate. Anti-His Adapter CAR T cells were subsequently added at an E:T ratio of 2:1 in a volume of 50 μL TexMACS medium (Miltenyi Biotec). T cell numbers were adjusted to LNGFR expression implicating equal transduced and total T cell numbers in each well. The number of untransduced T cells was adjusted to total cell numbers. 1E4 anti-CD19 Fab inducible T cells that secrete the adapter molecule, a His-tagged anti-CD19 Fab, upon induction, were added to the respective wells. His-tagged anti-CD19 Fab secretion was induced by the addition of 100 nM 4-OHT (Sigma-Aldrich) in 50 μL TexMACS (Miltenyi Biotec) at the start of the assay. The plate was centrifuged at 300 g for 1 min and incubated at 37° C., 5% C02 for 2 days. Activation of T cells was analyzed by staining the cells of the co-culture with anti-PD-1-PEVio770, CD3-VioBlue, CD8-VioGreen and LNGFR-APC conjugates (Miltenyi Biotec). Therefore, the co-culture plate was centrifuged at 300 g for 5 min and cells were stained with 50 μL staining mixture composed of the PD-1 PE07, conjugate (Miltenyi Biotec) diluted in PEB for 10 min at 4° C. Cells were washed twice with 200 μL PEB (300 g, 5 min). Cells were resuspended in 100 μL PEB for subsequent flow cytometric analysis. […]

A further test deals with drug-inducible T cells. Kind of test: Induction of anti-CD19 Fab-His6 secretion by drug-inducible primary T cells; supernatant stained on CD19+ Raji cells. The conditions noted are these: 4-OHT 0-500 nM. As for the experimental part:
Lentiviral particles encoding for the drug-inducible cassette were manufactured as described in example 1.2. Drug-inducible T cells were generated as described in example 1.3. 1E4 LNGFR positive drug-inducible T cells were seeded in 100 μL TexMACS medium (Miltenyi Biotec) supplemented with IL-7 (Miltenyi Biotec) and IL-15 (Miltenyi Biotec) in a 96 round bottom well plate. Secretion of the His6-tagged anti-CD19 Fab was induced by the addition of different concentrations of 4-OHT (0-500 nM, Sigma-Aldrich) in 100 μL TexMACS medium (Miltenyi Biotec) supplemented with IL-7 (Miltenyi Biotec) and IL-15 (Miltenyi Biotec) to each well. Untransduced T cells constitute the negative control. Cells were incubated at 37° C. and 5% C02. His6-tagged anti-CD19 Fab containing supernatant was harvested 48 h after the induction. CD19^+ Raji cells were subsequently stained using T cell supernatant and anti-His-APC as secondary antibody. Therefore, 1E5 CD19^+ Raji cells were seeded in a 96 round bottom well plate. Cells were pelleted at 300 g for 5 min and stained with 50 μL of the collected T cell supernatant for 10 min at 4° C. […] The determined mean fluorescent intensity in the APC channel was correlated to the Fab concentration by extrapolation from a standard curve. […]

A further test has as its system CD19+ Raji cells. Kind of test: Cytolytic activity of anti-His adapter CAR T cells in co-culture with Raji cells and inducible anti-CD19 Fab T cells. The following applies: adapter CAR T cells (E:T 2:1) and 1E4 inducible T cells, 6 days. As for the experimental part: Anti-His Adapter CAR T cell-mediated cytotoxicity against tumor cells was assessed by the quantification of living target cells using the MACSQuant® Analyzer 10 (Miltenyi Biotec). Therefore, 1E4 GFP^+ Raji cells were seeded in 50 μL TexMACS medium (Miltenyi Biotec) in a 96-well round-bottom plate. Anti-His Adapter CAR T cells were subsequently added at an E:T ratio of 2:1 in a volume of 50 μL TexMACS medium (Miltenyi Biotec). T cell numbers were adjusted to LNGFR expression implicating equal transduced and total T cell numbers in each well. The number of untransduced T cells was adjusted to total cell numbers. 1E4 anti-CD19 Fab inducible T cells that secrete the adapter molecule, a His-tagged anti-CD19 Fab, upon induction, were added to the respective wells. His-tagged anti-CD19 Fab secretion was induced by the addition of 100 nM 4-OHT (Sigma-Aldrich) in 50 μL TexMACS (Miltenyi Biotec) at the start of the assay. The plate was centrifuged at 300 g for 1 min and incubated at 37° C., 5% C02. The specific lysis of target cells was determined 6 days after co-culture set-up. […] Next, living target cells were quantified via flow cytometry. […] Living Raji tumor cells were defined as PI^−, GFP^+ cells and specific lysis was calculated according to the following formula: % specific lysis=(1−(Raji cell count [sample]/Raji cell count [target cell]))·100%.

4-hydroxytamoxifen [4-OHT]: in test [1], the “4-OHT concentration at which PD-1 expression on T cells was detected” value is “at least 10 nM” and the “4-OHT concentration giving maximal frequency of PD-1 positive cells” value is listed as “at least 50 nM”. Besides, the “Amount of His6-tagged anti-CD19-Fab in T cell supernatant with increasing 4-OHT concentration” value with drug-inducible T cells (48 h, Fab concentration extrapolated from standard curve) is “increasing amounts of His6-tagged anti-CD19-Fab is detected”. For the same substance, in the test on drug-inducible T cells (supernatant harvested 48 h after induction), the “Induction of His6-tagged anti-CD19-Fab secretion by inducible T cells” value is “strictly dependent on the presence of the inducer drug 4-OHT”. Moreover, in the test with CD19+ Raji cells, the “4-OHT concentration at which specific lysis of CD19+ Raji cells was detected” value is recorded as “at least 1 nM” and the “4-OHT concentration giving maximal specific lysis” value is listed as “at least 10 nM”.
